Laboratory results published in US5563268A, “Heterobiaryl derivatives” (Dr. Karl Thomae GmbH, priority 1991, dated 1996).
Where a name gives a salt, the structure may show the parent alone.

Experiments:
human thrombocytes [1] = assay: Fibrinogen binding to human thrombocytes (125I-fibrinogen, gel-filtered platelets); conditions: inhibition of 125I-fibrinogen binding by 50%, 20 minutes at ambient temperature, read-out: Fibrinogen binding test ID50
Description: (§1) 1. Fibrinogen binding to human thrombocytes Blood obtained by puncture of an antecubital vein is anticoagulated with trisodium citrate (final concentration: 13 mM) and centrifuged for 10 minutes at 170 *g. The supernatant platelet-rich plasma is placed on a Sepharose 2B column (Pharmacia) and eluted with a solution of 90 mM common salt, 14 mM trisodium citrate, 5 mM glucose and 50 mM tris(hydroxymethyl)aminomethane, adjusted to pH 7.4. The gel-filtered platelets (GFP) appearing in front of the plasma proteins are used for the binding tests. 50 μl of a 60 mM calcium chloride solution, 50 μl of a 0.6 mM adenosine diphosphate solution, 100 μl of substance solution or solvent and 50 μl of fibrinogen solution (containing 3 μg ^125 I-fibrinogen) are added to 750 μl of GFP and incubated for 20 minutes at ambient temperature. The non-specific binding is measured in the presence of 3 mg/ml of cold fibrinogen. 900 μl of the incubate are carefully pipetted onto 250 μl of silicon oil (AP 38: AR 20, 1:2 v/v, Wacker Chemie) in Eppendorf vessels and centrifuged for 2 minutes at 10,000 *g. The aqueous supernatant and some of the oil are removed, the tip of the vessel with the platelet pellet is cut off and the quantity of bound fibrinogen is measured in a gamma-counter. The concentration of substance which inhibits fibrinogen binding by 50% is calculated from a series of concentrations and given as the IC50.

thrombocyte aggregation = assay: Antithrombotic activity: inhibition of collagen-induced platelet aggregation (Born and Cross) in platelet-rich plasma; assay type: cell-based, healthy volunteers (human); conditions: 10 min, human platelet-rich plasma, 10 minutes incubation at 37° C.
Description: Method The thrombocyte aggregation is measured using the Born and Cross method (J. Physiol. 170: 397 (1964)) in platelet-rich plasma taken from healthy volunteers. To inhibit coagulation the blood is mixed with 3.14% sodium citrate in a ratio by volume of 1:10. Collagen-induced aggregation The pattern of the decrease in optical density of the platelet suspension is photometrically measured and recorded after the addition of the aggregation-triggering substance. The rate of aggregation is concluded from the angle of inclination of the density curve. The point on the curve where there is maximum light transmittance is used to calculate the optical density. The amount of collagen used is as small as possible but sufficient to produce an irreversible reaction curve. Standard commercial collagen produced by Hormonchemie of Munich is used. Before the addition of the collagen the plasma is incubated for 10 minutes with the substance at 37° C. From the measurements obtained an EC50 is determined graphically, indicating a 50% change in the optical density in terms of the inhibition of aggregation.

mice = assay: Tolerability after intravenous administration to mice; assay type: in vivo; conditions: intravenous administration of 30 mg/kg to three mice
human thrombocytes [2] = assay: Fibrinogen binding test on human thrombocytes with 125I-fibrinogen replaced by a 3H-labelled ligand (footnote *); conditions: * 125I fibrinogen replaced by 3H-labelled (3S,5S)-5-[(4amidino-4-biphenylyl)-oxymethyl... pyrrolidon ligand; 20 min; read-out: Fibrinogen binding test ID50
Description: as §1, with “The gel-filtered platelets (GFP) appearing in front of the plasma proteins are used for the binding tests. 50 μl of a 60 mM calcium chloride solution, 50 μl of a 0.6 mM adenosine diphosphate solution, 100 μl of substance solution or solvent and 50 μl of fibrinogen solution (containing 3 μg ^125 I-fibrinogen) are added to 750 μl of GFP and incubated for 20 minutes at ambient temperature.” left out, “IC50. | *^125 I fibrinogen was replaced by [^3 […]” for “IC50.”

human thrombocytes [3] = assay: Antiaggregatory activity ex vivo after oral administration to rats, rat plasma in the presence of human thrombocytes; parameters: species or system rat (treated animals; conditions: 10 mg/kg oral, two hours after administration, rat plasma with human thrombocytes

| Structure (SMILES) | IC50 (human thrombocytes [1]) [nM] | EC50 (thrombocyte aggregation) [nM] | deaths (mice) | IC50 (human thrombocytes [2]) [nM] | antiaggregatory activity (human thrombocytes [3]) |
| --- | --- | --- | --- | --- | --- |
| N=C(N)c1ccc(-c2cc(C(=O)NCCCCC(=O)O)c(=O)[nH]n2)cc1 [1(3), 6-(4-amidinophenyl)-4-[(4-carboxybutyl)-aminocarbonyl]-2H-pyridazin-3-one] | 200 | 390 |  |  |  |
| Cn1nc(-c2ccc(C(=N)N)cc2)cc(C(=O)N[C@H]2CC[C@H](C(=O)O)CC2)c1=O [1(4), 6-(4-amidinophenyl)-4-[(trans-4-carboxycyclohexyl)-aminocarbonyl]-2-methyl-(2H)-pyridazin-3-one] | 37 | 540 | did not cause any deaths |  |  |
| N=C(N)c1ccc(-c2ccc(Nc3ccc(CCC(=O)O)cc3)nn2)cc1 [1(7), 6-(4-amidinophenyl)-3-[4-(2-carboxyethyl)-phenylamino]-pyridazine] | 4400 | 12000 |  |  |  |
| N=C(N)c1ccc(-c2ccc(Oc3ccc(CCC(=O)O)cc3)nn2)cc1 [1(8), 6-(4-amidinophenyl)-3-[4-(2-carboxyethyl)-phenyloxy]-pyridazine] | 1700 | 39000 |  |  |  |
| N=C(N)c1ccc(-c2ccc(N[C@H]3CC[C@H](C(=O)O)CC3)nn2)cc1 [1(11), 6-(4-amidinophenyl)-3-[(trans-4-carboxycyclohexyl)-amino]-pyridazine] | 580 | 1200 |  |  |  |
| COc1nc(-c2ccc(C(=N)N)cc2)ncc1C(=O)N1CCC(CC(=O)O)CC1 [1(14), 2-(4-amidinophenyl)-5-[4-(carboxymethyl)-piperidinocarbonyl]-4-methoxy-pyrimidine] | 33 | 100 |  |  |  |
| Cn1nc(-c2ccc(C(=N)N)cc2)cc(C(=O)N(C)[C@H]2CC[C@H](C(=O)O)CC2)c1=O [1(16), 6-(4-amidinophenyl)-4-[N-(trans-4-carboxycyclohexyl)-N-methyl-aminocarbonyl]-2-methyl-(2H)-pyridazin-3-one] | 55 | 160 | did not cause any deaths |  |  |
| N=C(N)c1ccc(-c2cc(C(=O)N[C@H]3CC[C@H](C(=O)O)CC3)c(=O)n(Cc3ccccc3)n2)cc1 [1(18), 6-(4-amidinophenyl)-2-benzyl-4-[(trans-4-carboxycyclohexyl)-aminocarbonyl]-(2H)-pyridazin-3-one] |  | 310 |  | 33 |  |
| N=C(N)c1ccc(-c2cc(C(=O)N[C@H]3CC[C@H](C(=O)O)CC3)cnn2)cc1 [1(20), 3-(4-amidinophenyl)-5-[(trans-4-carboxycyclohexyl)-aminocarbonyl]-pyridazine] | 57 | 290 | did not cause any deaths |  |  |
| COc1nnc(-c2ccc(C(=N)N)cc2)cc1C(=O)N[C@H]1CC[C@H](C(=O)O)CC1 [1(21), 6-(4-amidinophenyl)-4-[(trans-4-carboxycyclohexyl)-aminocarbonyl]-3-methoxy-pyridazine] | 62 | 320 |  |  |  |
| N=C(N)c1ccc(-c2cc(C(=O)N[C@H]3CC[C@H](C(=O)O)CC3)c(=O)n(CC(=O)N3CCOCC3)n2)cc1 [1(30), 6-(4-amidinophenyl)-4-[(trans-4-carboxycyclohexyl)-aminocarbonyl]-2-[(morpholinocarbonyl)-methyl]-(2H)-pyridazin-3-one-hydrochloride] |  | 100 |  | 33 |  |
| COC(=O)CCCCNC(=O)c1cc(-c2ccc(C(=N)N)cc2)nn(C)c1=O [2(1), 6-(4-amidinophenyl)-4-[[4-(methoxycarbonyl)-butyl]-aminocarbonyl]-2-methyl-(2H)-pyridazin-3-one] | 3200 | 1900 |  |  |  |
| COC(=O)CC1CCN(C(=O)c2cnc(-c3ccc(C(=N)N)cc3)nc2OC)CC1 [2(15), 2-(4-amidinophenyl)-4-methoxy-5-[4-[(methoxycarbonyl)-methyl]-piperidinocarbonyl]-pyrimidine-hydrochloride] | 52000 | 5200 |  |  |  |
| COC(=O)[C@H]1CC[C@H](N(C)C(=O)c2cc(-c3ccc(C(=N)N)cc3)nn(C)c2=O)CC1 [2(17), 6-(4-amidinophenyl)-4-[N-[trans-4-(methoxycarbonyl)-cyclohexyl]-N-methyl-aminocarbonyl]-2-methyl-(2H)-pyridazin-3-one-hydrochloride] | 2300 | 1300 |  |  |  |
| Cn1nc(-c2ccc(C(=N)N)cc2)cc(C(=O)NCCCCC(=O)O)c1=O [Example 1, 6-(4-Amidinophenyl)-4-[(4-carboxybutyl)-aminocarbonyl]-2-methyl-(2H)-pyridazin-3-one] | 130 | 420 | did not cause any deaths |  |  |
| COC(=O)[C@H]1CC[C@H](NC(=O)c2cc(-c3ccc(C(=N)N)cc3)nn(C)c2=O)CC1 [Example 2, 6-(4-Amidinophenyl)-4-[[trans-4-(methoxycarbonyl)-cyclohexyl]-aminocarbonyl]-2-methyl-(2H)-pyridazin-3-one] | 1900 | 360 |  |  |  |
| COC(=O)NC(=N)c1ccc(-c2cc(C(=O)N[C@H]3CC[C@H](C(=O)OC)CC3)c(=O)n(C)n2)cc1 [Example 3, 6-[4-[N-(Methoxycarbonyl)-amidino]-phenyl]-4-[[trans-4-(methoxycarbonyl)-cyclohexyl]-aminocarbonyl]-2-methyl-(2H)-pyridazin-3-one] | 2200 | > 300000 | did not cause any deaths |  | showed an antiaggregatory activity |
| Cl.Cn1nc(-c2ccc(CN)cc2)cc(C(=O)N[C@H]2CC[C@H](C(=O)O)CC2)c1=O [Example 4, 6-[4-(Aminomethyl)-phenyl]-4-[(trans-4-carboxy-cyclohexyl)-aminocarbonyl]-2-methyl-(2H)-pyridazin-3-one-hydrochloride] | 370 | 790 | did not cause any deaths |  |  |
| COC(=O)[C@H]1CC[C@H](NC(=O)c2cc(-c3ccc(CN)cc3)nn(C)c2=O)CC1 [Example 5, 6-[4-(Aminomethyl)-phenyl]-4-[[trans-4-(methoxycarbonyl)-cyclohexyl]-aminocarbonyl]-2-methyl-(2H)-pyridazin-3-one-hydrochloride] | 6200 | 3000 |  |  |  |
